# Measured values as given in PMC3308197 (Journal of Medicinal Chemistry, 2012).
# Conditions: from measured plasma protein binding in vitro of 92%
structure (smiles),measurement,value
"Cc1cc(-c2nnc(N)nc2-c2ccccc2)cc(C(F)(F)F)n1 [Compound 4k, 6-[2-Methyl-6-(trifluoromethyl)pyridin-4-yl]-5-phenyl-1,2,4-triazin-3-amine]",unbound plasma fraction,8%
